{"source": "patent US6469013B2", "about": "“Therapeutic compounds” (Parker Hughes Institute, priority 1998, dated 2002)", "key": {"[1]": {"system": "NALM-6 human leukemia cells", "experiment": "Mitochondrial membrane potential (DiIC1, JC-1 flow cytometry)", "format": "cell-based", "conditions": "for EC50: Homo sapiens, NALM-6", "procedure": "Mitochondrial membrane potential (Δψm) was measured using two dyes including a lipophillic cation 5,5′,6,6′-tetrachloro-1,1′,3,3′-tetraethlybenzimidazolylcarbocyanine iodide (JC-1) and a cyanine dye, 1,1′,3,3,3′,3′-hexamethylindodicarbocyanine iodide (DiIC1 (27-29)) obtained from Molecular Probes (Eugene, Oreg.). JC-1 is a monomer at 527 nm after being excited at 490 nm; with polarization of Δψm, J-aggregates are formed that shift emission to 590 nm (30). This can be detected on a flow cytometer by assessing the green signal (at 527 nm) and green-orange signal (at 590 nm) simultaneously, creating an index of the number of cells polarized and depolarized mitochondria. DiIC1, a cyanine dye which is amphioatheic and cationic, concentrates in energized mitochondria and has been used in a variety of studies to measure the mitochondrial membrane potential (Fujii, H., et al., Histochem J. 29: 571-581, 1997; Mancini, M., et al., J. Cell Biol. 138: 449-469, 1997; and Petit, P. X., et al., J. Cell Biol. 130: 157-167, 1995). Cells were also stained with DiIC1 at 40 nM concentration for 30 min in the dark as described for JC-1. The cells were analyzed using a Vantage Becton Dickinson (San Jose, Calif.) cell sorter equipped with HeNe laser with excitation at 635 nm and the fluorescence was collected at 666 nm.\nTo test the cytotoxicity of compound 6 against JAK-3 expressing human leukemia cells, leukemic cells were exposed to this JAK3 inhibitor and monitored for apoptosis-associated changes in mitochondrial membrane potential (Δψm) and mitochondrial mass using specific fluorescent mitochondrial probes and multiparameter flow cytometry. To measure changes in Δψm, DiIC1 (which accumulates in energized mitochondria) was used, whereas the mitochondrial mass was determined by staining the cells with NAO, a fluorescent dye that binds to the mitochondrial inner membrane independent of energetic state. Treatment of NALM-6 leukemia cells with compound 6 at 7.4 μg/ml (25 μM) to 60 μg/ml (200 μM) for 24 h or 48 h increased the number of depolarized mitochondria in a concentration- and time-dependent manner as determined by flow cytometry using DiIC1 (27-29) (FIG. 7A). […] To further confirm this relative change in Δψm, we used JC-1, a mitochondrial dye, which normally exists in solution as a monomer emitting green fluorescence and assumes a dimeric configuration emitting red fluorescence in a reaction driven by mitochondrial transmembrane potential (Smiley, S. T., et al., Proc. Natl. Acad. Sci. U.S. A. 88: 3671-3675, 1991). Thus, the use of JC-1 allows simultaneous analysis of mitochondrial mass (green fluorescence) and mitochondrial transmembrane potential (red/orange fluorescence). After treatment of NALM-6 cells with compound 6 at increasing concentrations ranging from 25 μM to 200 μM and with increasing duration of exposure of 24 h or 48 h, we observed a progressive dissociation between Δψm and mitochondrial mass, with decrement in JC-1 red/orange fluorescence without a significant corresponding drop in JC-1 green fluorescence (FIG. 7C&D)."}, "[2]": {"system": "NALM-6 cells", "experiment": "In situ TUNEL apoptosis assay", "format": "cell-based", "conditions": "Homo sapiens, 10-500 μM, 48 hours, read-out: EC50, percentage of apoptotic cells (TUNEL)", "text": "Apoptosis Assays Cells were examined for apoptotic changes after treatment with compound 6 by the in situ terminal […] transferase-mediated dUTP end-labeling (TUNEL) assay using the ApopTag apoptosis detection kit (Oncor, Gaithersburg, Md.) according to the manufacturer's recommendations, as detailed in our earlier reports (Zhu, D. -M., et al., Clin. Can. Res. 4: 2967-2976, 1998; D'Cruz, O., P., G., and Uckun, F. M. Biology of Reproduction. 58: 1515-1526, 1998).\nTo confirm that compound 6 can induce apoptosis in leukemia cells, the TdT-mediated labeling of 3′-OH termini with digoxigenin-conjugated UTP using the in situ TUNEL assay method combined with confocal laser scanning microscopy was employed. At 48 hours after treatment with compound 6 at concentrations ranging from 10 μM to 500 μM, NALM-6 cells were examined for digoxigenin-dUTP incorporation using FITC-conjugated anti-digoxigenin (green fluorescence) and propidium iodide counterstaining (red fluorescence). […] FIG. 8B.1 and 8B.2 depict the two-color confocal microscopy images of vehicle-treated control cells and cells treated with 100 μM compound 6. […] Because of their exquisite sensitivity in detecting DNA fragments released from a small percentage of apoptotic cells, the DNA gel assays of apoptosis are uniquely suited to examine the nonspecific toxicity of new antileukemic agents."}, "[3]": {"system": "C57BL/6 male mice", "experiment": "Low-dose streptozotocin (LDSTZ) diabetes model", "format": "in vivo, mouse", "conditions": "100 mg/kg daily i.p.", "procedure": "C57BL/6 male mice or JAK3-deficient and WT mice (8-10-wk-old) were injected intraperitoneally with low-dose (40 mg/kg ) of STZ (Sigma, St Louis, Mo.) daily for 5 consecutive days, for induction of autoimmune experimental diabetes (LDSTZ). STZ was dissolved in citrate buffer pH 4.0 on ice, and injected within 10 min of preparation. Mice were monitored for diabetes development by testing blood glucose from the second week (day 7) after the STZ administrations by One Touch Profile diabetes tracking system (Lifescan, Milpitas, Calif.). Mice with glycemia over 220 mg/dl on three consecutive tests were considered diabetic, with the first detection of chronic glycemia taken as the date of diabetes onset. A group of C57BL/6 males was treated with WHI-P131-100 mg/kg/day, i.p., devided in two equal doses, from a beggining of the experiment till day 25."}, "[4]": {"system": "C57BL/6 males", "experiment": "Splenocyte populations after in vivo treatment (FACS)", "design": "species or system mouse", "conditions": "130 mg/kg for 10 days", "procedure": "All Abs were purchased from Pharmingen, San Diego, Calif. Stained splenocytes were analyzed by FACS Calibur, as described above."}}, "note": "Read-outs that look alike come from different tables or passages of the source.", "data": [{"smiles": "COc1cc2ncnc(Nc3ccc(O)cc3)c2cc1OC", "note": "[WHI-P131, 4-(4′-hydroxyl-phenyl)-amino-6,7-dimethoxyquinazoline]", "values": [{"measurement": "JC-1 green fluorescence (mitochondrial mass)", "setting": "[1]; 200 μM × 48 hours", "value": 99.8, "unit": "%"}, {"measurement": "fraction of DiIC1-negative cells with depolarized mitochondria", "setting": "[1]; 200 μM, 48 hours", "value": 81.6, "unit": "%"}, {"measurement": "fraction of JC-1 red/orange fluorescence-negative cells", "setting": "[1]; 200 μM, 48 hours", "value": 16.9, "unit": "%"}, {"measurement": "EC50", "setting": "[1]; 24 hour treatment, read-out: EC50, depolarization of mitochondria (decreased DiIC1 staining)", "value": 79.3, "unit": "µM"}, {"measurement": "EC50", "setting": "[1]; 24 hour treatment, read-out: EC50, depolarization of mitochondria (decreased JC-1 red/orange fluorescence)", "value": 94.2, "unit": "µM"}, {"measurement": "EC50", "setting": "[1]; 48 hour treatment, read-out: EC50, depolarization of mitochondria (decreased DiIC1 staining)", "value": 58.4, "unit": "µM"}, {"measurement": "EC50", "setting": "[1]; 48 hour treatment, read-out: EC50, depolarization of mitochondria (decreased JC-1 red/orange fluorescence)", "value": 50.4, "unit": "µM"}, {"measurement": "EC50", "setting": "[2]", "value": 84.6, "unit": "µM"}, {"measurement": "diabetic mice", "setting": "[3]; day 7 post first STZ injection", "value": 20, "unit": "%"}, {"measurement": "diabetic mice", "setting": "[3]; day 9", "value": 50, "unit": "%"}, {"measurement": "diabetic mice", "setting": "[3]; day 11", "value": 65, "unit": "%"}, {"measurement": "percentages of CD3+, CD4+ and CD8+ T-cells and CD19+ B-cells vs vehicle", "setting": "[4]; data not shown", "value": "no differences"}, {"measurement": "number of CD4+ T-cells", "setting": "[4]; controls 20.5±0.6", "value": "16.8±1.2 ×10^6"}, {"measurement": "number of CD3+ splenocytes", "setting": "[4]; controls 46.9±2.6", "value": "37.7±3.2 ×10^6"}, {"measurement": "number of B-cells", "setting": "[4]; controls 78.2±6.1", "value": "57.1±5.3 ×10^6"}, {"measurement": "Total number of splenocytes", "setting": "[4]; vehicle 154±8.5", "value": "119±9.4 ×10^6"}]}]}
